The source of these data is paper PMC5007466, “VCP recruitment to mitochondria causes mitophagy impairment and neurodegeneration in models of Huntington's disease” (Nature Communications, 2016).

For one series, the system named is HdhQ7 striatal cells. Description: Total GFP-LC3B protein level. It counts as cell-based, mouse. The settings on record: Flag-VCP + GFP-LC3B, 36 h. The protocol:
Protein concentrations were determined by Bradford assay. Protein was resuspended in Laemmli buffer, loaded on SDS–PAGE, and transferred onto nitrocellulose membranes. Membranes were probed with the indicated antibodies, followed by visualization with ECL. Representative blots have been cropped for presentation. Images of full-size blots are presented in Supplementary Fig. 9. […]
mouse striatal cells were treated with thapsigargin (1μM) or tunicamycin (10μ g/ml) for 16 hours i n the presence or absence of HV -3 (3 µM). GRP78 total protein levels were determined by western blot analysis. Representative blots of three independent experiments are shown. Actin was used here as a loading control. (b) Tw e n t y -four hours of serum starvation was performed in HD mouse striatal cells.
Caspase-3 activity analysis was performed in the indicated groups. Data are mean ± SEM of three independent experiments. (c) Flag-VCP and GFP-LC3B were co-transfected into HdhQ7 striatal cells.
Total lysates were isolated after 36 hours of transfection. The GFP -LC3B levels were examined by western blot analysis. Actin was used as a loading control. Histogram: quantitation of GFP-LC3B total protein level. Data are mean ± SEM of three independent experiments.
(1 picture or pasted object on this page, not shown here)

The next series concerns R6/2 mice. Description: PGC1-alpha protein level in mouse brain. The series is classed as in vivo. The settings on record: R6/2 mouse brains (peer review file). The text has this: Comment 2: Also how do the authors fit this in with the well-established defects in PGC1-alpha in HD. Do you have to have both?
Response: We thank the reviewer for these insightful comments. Following […]
mouse brains of R6/2 mice treated with either HV-3 or control peptide TAT.
Consistent with previous studies, we observed that PGC1-alpha was decreased in HD R6/2 mouse brains. To our surprise, treatment with HV-3 can partially […]
on the right). It is possible that this increase in PGC1-alpha level is an indirect effect of improvement of mitochondrial mass and quality by the HV-3 treatment.
Recent studies have shown that PGC1-alpha regulates mitophagy and autophagy via TFEB (Tsunemi T et al., Sci Trans Med, 2014; Siddiqui A et al., J Neurosci, 2015). Thus, our result may raise another possibility that there is a correlation between PGC1alpha and VCP-mediated mitophagy in HD. However, the mechanism remains to be determined, and it is beyond the scope of this manuscript. In response to the reviewer’s comment, we now add the following sentences in the discussion in the revised manuscript.
“In addition, PGC1α, a key regulator of mitochondrial biogenesis implicated in HD pathogenesis, has recently been reported to regulate mitophagy and autophagy through TFEB signaling 65, 66. […]

Series [1] relates to wt mice (R6/2 littermates). Description: Motor ability, body weight, life span of wt littermates. It counts as in vivo, mouse. To be noted: 3 mg kg^−1 per day, 5–13 weeks of age. The protocol:
Male hemizygous R6/2 mice (Tg) and their age-matched wt littermates (5-week-old) were implanted with a 28-day osmotic pump (Alzet, Cupertino CA) containing TAT control peptide or HV-3 peptide, which delivered peptides to the mice at a rate of 3 mg kg^−1 per day. The first pump was implanted subcutaneously in the back of 5-week-old mice between the shoulders and replaced once, after 4 weeks.
Gross locomotor activity was assessed in R6/2 mice and age-matched wt littermates at the ages of 13 weeks and in YAC128 mice and age-matched wt littermates at the ages of 2, 3, 6, 9, and 12 months. In an activity chamber (Omnitech Electronics, Inc), mice were placed in the center of the chamber and allowed to explore while being tracked by an automated beam system (Vertax, Omnitech Electronics Inc). Distance moved, horizontal, vertical, and rearing activities were recorded. Because R6/2 mice were sensitive to changes in environment and handling, we only conducted one-hour locomotor activity analysis for R6/2 mice and wt littermates. We performed 24 h of locomotor activity analysis for YAC128 mice and their wt littermates.
The body weight and survival rate of HD mice and wt littermates were recorded throughout the study period.

In the case of `CSCC[C@H](NC(=O)[C@@H](NC(=O)[C@H](CC(C)C)NC(=O)[C@@H](NC(=O)[C@H](Cc1c[nH]cn1)NC(=O)CCCCCNC(=O)[C@H](CCCNC(=N)N)NC(=O)[C@H](CCCNC(=N)N)NC(=O)[C@H](CCCNC(=N)N)NC(=O)[C@H](CCC(N)=O)NC(=O)[C@H](CCCNC(=N)N)NC(=O)[C@H](CCCNC(=N)N)NC(=O)[C@H](CCCCN)NC(=O)[C@H](CCCCN)NC(=O)[C@H](CCCNC(=N)N)NC(=O)CNC(=O)[C@@H](N)Cc1ccc(O)cc1)C(C)C)C(C)C)C(=O)N[C@@H](CS)C(=O)N[C@@H](C)C(=O)N[C@H](C(N)=O)[C@@H](C)O` [HV-3], the “total GFP-LC3B protein level” value with HdhQ7 striatal cells is recorded as “no effect on the total protein level of GFP-LC3B”. Also, the PGC1-alpha protein level entry in the series on R6/2 mice is “improve the protein level of PGC1-alpha in the R6/2 mouse brains”. Moreover, the “motor ability, body weight, life span of wt mice” value in series [1] is listed as “no effects on motor ability, body weight, or life span in wt mice”.
